From patent US5350762A, “Tetrahydrocyclopent[B]indole methanamines and related compounds” (priority 1993, dated 1994)
Where a name gives a salt, the structure may show the parent alone.

Tests used:
[1] = target: T1, acetylcholinesterase (AChE) (Rattus norvegicus, UniProt P37136); test: In vitro inhibition of acetylcholinesterase activity in rat striatum; type: biochemical, Rat (male Wistar)
T1 construct: corpora striata dissected free, weighed and homogenized in 19 volumes; from tissue; host or cells: male Wistar rat corpora striata, whole homogenate
T1 sequence (P37136 32-614): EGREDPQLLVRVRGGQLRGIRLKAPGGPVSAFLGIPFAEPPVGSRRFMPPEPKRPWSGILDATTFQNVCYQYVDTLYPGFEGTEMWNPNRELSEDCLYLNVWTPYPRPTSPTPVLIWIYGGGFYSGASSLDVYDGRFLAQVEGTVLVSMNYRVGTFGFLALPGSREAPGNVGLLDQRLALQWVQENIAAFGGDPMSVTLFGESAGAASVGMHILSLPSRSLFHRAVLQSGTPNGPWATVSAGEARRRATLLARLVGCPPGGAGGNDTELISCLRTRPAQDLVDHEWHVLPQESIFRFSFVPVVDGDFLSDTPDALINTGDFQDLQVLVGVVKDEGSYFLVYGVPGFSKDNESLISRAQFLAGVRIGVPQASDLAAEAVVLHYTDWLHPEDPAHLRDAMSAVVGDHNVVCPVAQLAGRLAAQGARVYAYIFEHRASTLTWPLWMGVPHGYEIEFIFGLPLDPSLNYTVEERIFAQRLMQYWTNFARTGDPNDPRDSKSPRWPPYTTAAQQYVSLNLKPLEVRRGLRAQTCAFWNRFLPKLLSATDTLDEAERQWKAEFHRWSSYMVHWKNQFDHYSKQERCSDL
Text: Cholinesterase Inhibition Assay
Cholinesterases are found throughout the body, both in the brain and in serum. However, only brain acetylcholinesterase (AChE) distribution is correlated with central cholinergic innervation.
In Vitro Inhibition of Acetylcholinesterase Activity in Rat Striatum
The method described below was used in this invention for assaying cholinesterase activity.
1. 0.05M Phosphate buffer, pH 7.2
(c) add (a) to (b) until pH reaches 7.2
4. […] If active, IC50 values are determined from the inhibitory activity of subsequent concentrations.
Enzyme activity is measured with the Beckman DU-50 spectrophotometer. This method can be used for IC50 determinations and for measuring kinetic constants.
Reagents are added to the blank and sample cuvettes as follows:
Blank values are determined for each run to control for non-enzymatic hydrolysis of substrate and these values are automatically subtracted by the kindata program available on kinetics soft-pac module. This program also calculates the rate of absorbance change for each cuvette.
Substrate concentration is 10 mM diluted 1:2 in assay yielding final concentration of 5 mM. DTNB concentration is 0.5 mM yielding 0.25 mM final concentration. [formula] IC50 values are calculated from log-probit analysis

[2] = system: monoamine oxidase type A and type B; conditions: in words; reference (2), Fowler and Ross 1984; cited from earlier work
[3] = target: T2, Type B monoamine oxidase (MAO-B) (Rattus norvegicus, UniProt P19643); test: Inhibition of Type B monoamine oxidase activity in rat brain synaptosomes; type: biochemical, Rat (male Wistar); conditions: [14C]-PEA substrate 200 μM, 15 min preincubation, 30 min at 37° C., pH 7.4, read-out: Inhibitory Concentration - IC50, Type-B
T2 construct: served as the tissue source for mitochondrial MAO; from tissue; host or cells: male Wistar rat whole brain minus cerebellum, P2 pellet (18,000 g)
T2 sequence (P19643 1-520): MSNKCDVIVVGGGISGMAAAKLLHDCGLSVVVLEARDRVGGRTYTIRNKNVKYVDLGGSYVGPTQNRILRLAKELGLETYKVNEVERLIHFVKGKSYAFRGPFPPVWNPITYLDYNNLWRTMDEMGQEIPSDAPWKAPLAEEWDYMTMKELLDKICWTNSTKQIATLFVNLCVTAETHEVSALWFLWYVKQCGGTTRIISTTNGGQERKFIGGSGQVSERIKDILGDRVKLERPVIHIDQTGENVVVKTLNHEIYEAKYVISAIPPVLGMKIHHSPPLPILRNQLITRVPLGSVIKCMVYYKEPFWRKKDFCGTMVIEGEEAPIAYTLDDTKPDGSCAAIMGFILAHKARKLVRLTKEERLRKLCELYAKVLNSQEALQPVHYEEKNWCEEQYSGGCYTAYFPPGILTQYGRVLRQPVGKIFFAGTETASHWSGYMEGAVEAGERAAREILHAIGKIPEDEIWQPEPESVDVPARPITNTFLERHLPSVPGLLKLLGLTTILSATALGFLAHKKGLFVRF
Text: (§1) Male Wistar rats weighing 150-250 grams were sacrificed and the brains rapidly removed.

[4] = target: T3, Type A monoamine oxidase (MAO-A) (Rattus norvegicus, UniProt P21396); test: Inhibition of Type A monoamine oxidase activity in rat brain synaptosomes; type: biochemical, Rat (male Wistar); conditions: [3H]-5HT substrate 200 μM, 15 min preincubation, 30 min at 37° C., pH 7.4, read-out: Inhibitory Concentration - IC50, Type-A
T3 construct: served as the tissue source for mitochondrial MAO; from tissue; host or cells: male Wistar rat whole brain minus cerebellum, P2 pellet (18,000 g)
T3 sequence (P21396 1-526): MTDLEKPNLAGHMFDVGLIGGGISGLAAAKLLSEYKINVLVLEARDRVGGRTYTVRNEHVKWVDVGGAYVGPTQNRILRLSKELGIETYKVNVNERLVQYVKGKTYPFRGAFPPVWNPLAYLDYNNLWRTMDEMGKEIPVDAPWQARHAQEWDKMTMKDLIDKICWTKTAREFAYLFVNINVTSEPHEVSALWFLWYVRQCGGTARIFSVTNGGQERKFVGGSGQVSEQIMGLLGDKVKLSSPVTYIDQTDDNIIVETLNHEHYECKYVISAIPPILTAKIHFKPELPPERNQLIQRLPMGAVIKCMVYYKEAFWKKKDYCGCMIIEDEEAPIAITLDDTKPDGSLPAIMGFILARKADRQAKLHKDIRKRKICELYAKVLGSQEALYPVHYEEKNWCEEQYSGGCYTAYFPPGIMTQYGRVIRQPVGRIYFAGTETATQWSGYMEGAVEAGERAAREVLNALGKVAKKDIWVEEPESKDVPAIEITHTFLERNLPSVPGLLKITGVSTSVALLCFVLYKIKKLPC
Text: as §1

Structure (SMILES) | selectivity of inhibition of type A / type B monoamine oxidase [2] | IC50 [3] | IC50 [4] | further results
CNC(=O)Oc1ccc2c(c1)c1c(n2C)CC(CN(C)C)C1 (centres unmarked) [1,2,3,4-Tetrahydro-2-[(dimethylamino)methyl]-4-methylcyclopent[b]indol-7-yl-methylcarbamate hydrochloride] | – | – | – | IC50 [1]: 9.6 µM
C#CCN(C)CCCOc1ccc(Cl)cc1Cl [Clorgyline] | selective inhibitor of the type A enzyme | – | – | –
COc1ccc2c(c1)c1c(n2C)CC(CN)C1 (centres unmarked) [1,2,3,4-Tetrahydro-7-methoxy-4-methylcyclopent[b]indole-2-methanamine hydrochloride] | – | 287 µM | 59 µM | –
CCNCC1Cc2c(n(C)c3ccc(OC)cc23)C1 (centres unmarked) [1,2,3,4-Tetrahydro-4-methyl-7-methoxy-N-ethylcyclopent[b]indole-2-methanamine maleate] | – | 713 µM | 182 µM | –
C#CCN(C)Cc1ccccc1 [pargyline] | selective inhibitors of the type B enzyme | – | – | –
CC(C)NNC(=O)c1ccncc1 [iproniazid] | nonselective inhibitors | – | – | –
